5 compounds from patent US7323596B2, “Antimicrobial agents” (De Novo Pharmaceuticals Ltd., priority 2000, dated 2008) can be followed below.

In assay [1] the test system is Haemophilia influenza. The experiment in a line: MIC by standard agar plate dilution method. Type of assay: cell-based. The procedure:
The susceptibilities of strains of bacteria to the compound of Example 1 were determined by a standard agar plate dilution method following recommendations in British Society for Antimicrobial Chemotherapy Working Party. 1991, “A guide to sensitivity testing British Society for Antimicrobial Chemotherapy, London, United Kingdom”. Briefly, Iso-Sensitest agar (pH 7.2: Oxoid, United Kingdom) is employed, supplemented with 5% horse blood (Oxoid) and 20 μg of NAD (Sigma) per ml are added to support growth of fastidious bacteria. The inoculum used is approximately 10^4 colony forming units of each isolate contained in a volume of 1 μl. Plates are incubated 18 to 24 hr in air, or for fastidious bacteria an atmosphere enriched with 4-6% carbon dioxide at 35° C. The MIC is determined as the lowest concentration of an Antimicrobial tested that inhibited growth of the inoculum, disregarding a single persisting colony or faint haze caused by the inoculation.

Assay [2] addresses E coli PDF (Ni) (Escherichia coli, UniProt P0A6K3). The experiment in a line: inhibition of the PDF E. coli (Ni) enzyme. The class given is biochemical. Particulars: Ni form of E. coli PDF enzyme. The procedure:
Examples 2-5 were prepared in a manner analogous to example 1. Also shown is there inhibition of the PDF E. coli(Ni) enzyme.

Values after ≈ are worked out from the molar mass of the structure shown.

Sequence of E coli PDF (Ni) (P0A6K3 whole entry): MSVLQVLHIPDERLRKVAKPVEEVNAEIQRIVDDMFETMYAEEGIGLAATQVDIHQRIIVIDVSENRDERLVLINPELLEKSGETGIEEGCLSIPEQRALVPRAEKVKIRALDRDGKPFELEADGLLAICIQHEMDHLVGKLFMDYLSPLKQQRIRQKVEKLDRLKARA

In assay [1], `CCCC[C@H](CN(O)C=O)NC(=O)Cc1cccc2ccccc12` [Example 1, N-{1R-[(Formyl-hydroxy-amino)-methyl]-pentyl}2-naphthalen-1-yl-acetamide] came in with an MIC of 0.5 to 2 µg/mL (≈ 1.52 to 6.09 µM).

A word on the IC50: it is the concentration at which inhibition is half-maximal. Read a low IC50 as greater potency in that assay. For the compound `CCCC[C@H](CN(O)C=O)NC(=O)c1cn(CC)c2cc3c(cc2c1=O)OCO3` [Example 2, 5-Ethyl-8-oxo-5,8-dihydro-[1,3]dioxolo[4,5]quinoline-7-carboxylic acid {1R-[(formyl-hydroxy-amino)-methyl]-pentyl}amide], the IC50 in assay [2] turned out to be 30 nM. The same measure, in the same setting: as for `CCCC[C@H](CN(O)C=O)NC(=O)c1cn(CC)c2ccc(Cl)cc2c1=O` [Example 4, 6-Chloro-1-ethyl-4-oxo-1,4-dihydro-quinoline-3-carboxylic acid {1R[(formyl-hydroxy-amino)-methyl]-pentyl}-amide], the figure is 20 nM. As to `CCCC[C@H](CN(O)C=O)NC(=O)c1coc2ccccc2c1=O` [Example 5, 4-Oxo-4H-chromene-3-carboxylic acid {1R-[(formyl-hydroxy-amino)-methyl]-pentyl}amide], in assay [2], the IC50 stood at 200 nM. Same read-out and setting: the value for `CCCC[C@H](CN(O)C=O)NC(=O)c1cn(C2CCCCC2)c2ccccc2c1=O` [Example 3, 1-Cyclohexyl-4-oxo-1,4-dihydro-quinoline-3-carboxylic acid {1R[(formyl-hydroxy-amino)-methyl]-pentyl}-amide] was 60 nM.
